Measured values published in ChEMBL document CHEMBL5532637, “Antimicrobial activity of natural and semi-synthetic carbazole alkaloids” (Eur J Med Chem, 2023).
≈ marks a conversion by molar mass, not a printed value. Values belong to the molecule of their own block, whether it stands above or below them.

What was measured:
Assay type in all cases: functional
[1] = test system: Enterococcus faecalis; assay: Antibacterial activity against multidrug-resistant Enterococcus faecalis assessed as inhibition of bacterial growth incubated for 12 to 36 hrs by broth dilution method; details: time 12-36 hrs
[2] = test system: Staphylococcus aureus; assay: Antibacterial activity against methicillin-resistant Staphylococcus aureus assessed as inhibition of bacterial growth incubated for 12 to 36 hrs by broth dilution method; details: time 12-36 hrs
[3] = test system: Staphylococcus aureus; assay: Antibacterial activity against Staphylococcus aureus […] assessed as inhibition of bacterial growth
[4] = test system: Bacillus subtilis; assay: Antibacterial activity against Bacillus subtilis DSM 6333 assessed as inhibition of bacterial growth
[5] = test system: Candida albicans; assay: Antifungal activity against Candida albicans ATCC 1231 assessed as inhibition of fungal growth
[6] = test system: Proteus mirabilis; assay: Antibacterial activity against Proteus mirabilis ATCC 29906 assessed as inhibition of bacterial growth
[7] = test system: Escherichia coli; assay: Antibacterial activity against Escherichia coli assessed as inhibition of bacterial growth by micro broth dilution method
[8] = test system: Staphylococcus aureus; assay: Antibacterial activity against methicillin-resistant Staphylococcus aureus N315 assessed as inhibition of bacterial growth by micro broth dilution method
[9] = test system: Staphylococcus aureus; assay: Antibacterial activity against Staphylococcus aureus ATCC 25923 assessed as inhibition of bacterial growth incubated for 24 hrs by broth dilution assay
[10] = test system: Staphylococcus aureus; assay: Antibacterial activity against methicillin-resistant Staphylococcus aureus clinical isolate assessed as inhibition of bacterial growth incubated for 24 hrs by broth dilution assay
[11] = test system: Staphylococcus aureus; assay: Antibacterial activity against methicillin-resistant Staphylococcus aureus assessed as inhibition of bacterial growth by two-fold serial dilution assay
[12] = test system: Staphylococcus aureus; assay: Antibacterial activity against Staphylococcus aureus ATCC 25923 assessed as inhibition of bacterial growth by two-fold serial dilution assay
[13] = test system: Staphylococcus aureus; assay: Antibacterial activity against Staphylococcus aureus ATCC 29213 assessed as inhibition of bacterial growth by two-fold serial dilution assay
[14] = test system: Staphylococcus aureus; assay: Antibacterial activity against Staphylococcus aureus assessed as inhibition of bacterial growth by two-fold serial dilution assay
[15] = test system: Escherichia coli; assay: Antimicrobial activity against Escherichia coli 1924 assessed as inhibition of microbial growth incubated for 24 hrs by two-fold serial dilution assay
[16] = test system: Staphylococcus aureus; assay: Antimicrobial activity against methicillin-resistant Staphylococcus aureus CCARM 3167 assessed as inhibition of microbial growth incubated for 24 hrs by two-fold serial dilution assay
[17] = test system: Candida albicans; assay: Antimicrobial activity against Candida albicans 7535 assessed as inhibition of microbial growth incubated for 24 hrs by two-fold serial dilution assay
[18] = test system: Streptococcus mutans; assay: Antimicrobial activity against Streptococcus mutans 3289 assessed as inhibition of microbial growth incubated for 24 hrs by two-fold serial dilution assay
[19] = test system: Staphylococcus aureus; assay: Antimicrobial activity against Staphylococcus aureus 4220 assessed as inhibition of microbial growth incubated for 24 hrs by two-fold serial dilution assay
[20] = test system: Bacillus subtilis; assay: Antibacterial activity against Bacillus subtilis assessed as zone of inhibition at 400 ug/ml by disc-diffusion method; details: read-out: IZ
[21] = test system: Pseudomonas aeruginosa; assay: Antibacterial activity against Pseudomonas aeruginosa assessed as zone of inhibition at 400 ug/ml by disc-diffusion method; details: read-out: IZ
[22] = test system: Escherichia coli; assay: Antibacterial activity against Escherichia coli assessed as zone of inhibition at 400 ug/ml by disc-diffusion method; details: read-out: IZ
[23] = test system: Aspergillus flavus; assay: Antifungal activity against Aspergillus flavus assessed as zone of inhibition at 400 ug/ml by disc-diffusion method; details: read-out: IZ
[24] = test system: Macrophomina phaseolina; assay: Antifungal activity against Macrophomina phaseolina assessed as zone of inhibition at 400 ug/ml by disc-diffusion method; details: read-out: IZ
[25] = test system: Fusarium oxysporum; assay: Antifungal activity against Fusarium oxysporum assessed as zone of inhibition at 400 ug/ml by disc-diffusion method; details: read-out: IZ
[26] = test system: Klebsiella pneumoniae; assay: Antibacterial activity against colistin resistant Klebsiella pneumoniae assessed as inhibition of bacterial growth incubated for 24 hrs

SMILES: Oc1cc(-c2ccc3c(c2)[nH]c2ccccc23)cc(O)c1O
MIC [1]: 6.25 µg/mL (≈ 21.5 µM)
MIC [2]: 3.13 µg/mL (≈ 10.7 µM)

MIC [3]: 31.2 µg/mL (≈ 126 µM)
MIC [4]: 31.2 µg/mL (≈ 126 µM)
MIC [5]: 0.016 µg/mL (≈ 0.0644 µM)
MIC [6]: 31.2 µg/mL (≈ 126 µM)
SMILES: c1ccc2c(c1)c1ccccc1n2Cn1cncn1

SMILES: Cn1c(=O)c2ncn(CC(O)Cn3c4ccccc4c4cc(Br)ccc43)c2n(C)c1=O (stereo unspecified)
MIC [7]: 33 µM (≈ 15.9 µg/mL)
MIC [8]: 8 µM (≈ 3.86 µg/mL)

SMILES: CCn1c2ccccc2c2c(Cl)c(N/N=C(/C(C)=O)N3CCN(CCO)CC3)ccc21
MIC [9]: 3.12 µg/mL (≈ 7.07 µM)
MIC [10]: 1.56 µg/mL (≈ 3.53 µM)

SMILES: Sc1nnc(Cn2c3ccc(Br)cc3c3cc(Br)ccc32)o1
MIC [11]: 0.6 µM (≈ 0.263 µg/mL)
MIC [12]: 0.6 µM (≈ 0.263 µg/mL)
MIC [13]: 0.6 µM (≈ 0.263 µg/mL)
MIC [14]: 0.6 µM (≈ 0.263 µg/mL)

SMILES: CN(C)C1=NC(c2ccc3c(c2)c2ccccc2n3Cc2ccc(Cl)cc2Cl)N=C(N)N1 (stereo unspecified)
MIC [15]: 0.5 µg/mL
MIC [16]: 0.5 µg/mL
MIC [17]: 0.5 µg/mL
MIC [18]: 0.5 µg/mL
MIC [19]: 0.5 µg/mL

SMILES: CCn1c2ccccc2c2cc3c(cc21)C(=O)CCC(=O)N3
zone of inhibition at 400 µg/mL [20]: 27 mm
zone of inhibition at 400 µg/mL [21]: 16 mm
zone of inhibition at 400 µg/mL [22]: 20 mm
zone of inhibition at 400 µg/mL [23]: 19 mm
zone of inhibition at 400 µg/mL [24]: 19 mm
zone of inhibition at 400 µg/mL [25]: 18 mm

SMILES: CCn1c2ccccc2c2c3[nH]c(C(=O)NNC(=O)c4ccc([N+](=O)[O-])cc4)cc3ccc21
MIC [26]: 64 µg/mL (≈ 145 µM)
